Source: patent EP1660440B1, “ACYLOXYALKYL CARBAMATE PRODRUGS, METHODS OF SYNTHESIS AND USE” (priority 2003, dated 2005)
Read-outs that look alike come from different tables or passages of the source.

Legend:
[1] = rat, plasma, 1 h, 2 µM
Procedure: (§1) The stabilities of prodrugs were evaluated in one or more in vitro systems using a variety of tissue preparations following methods known in the art. The chemical stability of prodrugs in aqueous buffers at pH's of 2.0, 7.4 and 8.0 were also measured. […] Each preparation was incubated with test compound at 37°C for one hour. Aliquots (50 µL) were removed at 0, 30, and 60 min and quenched with 0.1 % trifluoroacetic acid in acetonitrile.

[2] = human, plasma, 1 h, 2 µM
Procedure: as §1

[3] = aqueous buffer, 1 h
Procedure: as §1

Pancreatin = Pancreatin stability; type: in vitro ADME, porcine; settings: 1 % (w/v) pancreatin, 5 µM, pH 7.5, 37 °C, after 60 min
Procedure: Pancreatin Stability: Stability studies were conducted by incubating prodrug (5 µM) with 1 % (w/v) pancreatin (Sigma, P-1625, from porcine pancreas) in 0.025 M Tris buffer containing 0.5 M NaCl (pH 7.5) at 37 °C for 60 min. The reaction was stopped by addition of 2 volumes of methanol. After centrifugation at 14,000 rpm for 10 min, the supernatant was removed and analyzed by LC/MS/MS.

[4] = rat, s9, 1 h, 2 µM
Procedure: as §1

[5] = human, s9, 1 h, 2 µM
Procedure: as §1

[6] = human, s9, 1 h, 5 µM
Procedure: For stability studies, prodrug (5 µM) was incubated in Caco-2 homogenate S9 fraction (0.5 mg protein per mL) for 60 min at 37°C. Concentrations of intact prodrug and released baclofen were determined at zero time and 60 minutes using LC/MS/MS.

SMILES | % of Baclofen Released [1] | % of Prodrug Remaining [1] | % of Baclofen Released [2] | % of Prodrug Remaining [2] | % of Baclofen Released ([3]; pH 2) | % of Prodrug Remaining ([3]; pH 2) | % of Baclofen Released ([3]; pH 7.4) | % of Prodrug Remaining ([3]; pH 7.4) | % of Baclofen Released ([3]; pH 8) | % of Prodrug Remaining ([3]; pH 8) | % of Baclofen Released (Pancreatin) | % of Prodrug Remaining (Pancreatin) | % of Baclofen Released [4] | % of Prodrug Remaining [4] | % of Baclofen Released [5] | % of Prodrug Remaining [5] | % of Baclofen Released [6] | % of Prodrug Remaining [6]
CC(=O)OC(OC(=O)NC[C@H](CC(=O)[O-])c1ccc(Cl)cc1)C(C)C.[Na+] (stereo partly drawn) [(23), Sodium 4-[(1-Acetoxylsobutoxy)carbonylamino]1-(3R)-(4-chlorophenyl)-butanoate] | 93% | 11% | 3% | 96% | 0% | 107% | 1% | 89% | 2% | 90% | 24% | 82% | 107% | 3% | 105% | 4% | 87% | 15%
CC(C)C(=O)OC(OC(=O)NC[C@H](CC(=O)[O-])c1ccc(Cl)cc1)C(C)C.[Na+] (stereo partly drawn) [(25), Sodium 4-[(1-Isobutanoyloxyisobutoxy)carbonylamino]-(3R)-(4-chlorophenyl)-butanoate] | 96% | 5% | 4% | 93% | 0% | 101% | 0% | 100% | 0% | 100% | 84% | 22% | 98% | 1% | 91% | 4% | 95% | 2%
CC(OC(=O)NC[C@H](CC(=O)[O-])c1ccc(Cl)cc1)OC(=O)C(C)C.[Na+] (stereo partly drawn) [(33), Sodium 4-[(1-Isobutanoyloxyethoxy)carbonylamino]-(3R)-(4-chlorophenyl)-butanoate] | 30% | 73% | 4% | 96% | 0% | 100% | 0% | 72% | 0% | 101% | 52% | 46% | 101% | 4% | 101% | 3% | 95% | 3%
CC(C)C(=O)O[C@H](C)OC(=O)NC[C@H](CC(=O)[O-])c1ccc(Cl)cc1.[Na+] [(34), Sodium 4-{[(1S)-Isobutanoyloxyethoxy]-carbonylamino}-(3R)-(4-chlorophenyl) -butanoate] | 18% | 78% | 2% | 90% | 0% | 100% | 0% | 100% | 0% | 100% | 18% | 81% | 100% | 1% | 100% | 3% | 100% | 2%
O=C([O-])C[C@@H](CNC(=O)OCOC(=O)c1cccs1)c1ccc(Cl)cc1.[Na+] [(57), Sodium 4-[(2-Thienylcarbonyloxymethoxy)carbonylamino]-(3R)-(4-chlorophenyl)-butan oate] | 10% | 82% | 14% | 73% | 0% | 100% | 0% | 100% | 0% | 100% | 75% | 12% | 78% | 2% | 86% | 1% | 104% | 2%
CC(C)CC(=O)OCOC(=O)NC[C@H](CC(=O)[O-])c1ccc(Cl)cc1.[Na+] [(59), Sodium 4-[(3-Methylbutanoyloxymethoxy)carbonylamino]-(3R)-(4-chlorophenyl)-butano ate] | 85% | 2% | 11% | 77% | 0% | 103% | 1% | 103% | 2% | 97% | 50% | 46% | 85% | 2% | 82% | 1% | 104% | 3%
